Measurements: article PMC8766756, “Insights on Cancer Cell Inhibition, Subcellular Activities, and Kinase Profile of Phenylacetamides Pending 1H-Imidazol-5-One Variants” (Frontiers in Pharmacology, 2022)
Where “and” joins values, the source holds several entries; their conditions need not be identical. Equal entries are not always repeated.

Key:
Experiment in all cases: PamChip tyrosine kinase microarray
Format in all cases: biochemical
Conditions in all cases: 0.1 µM, HL60 lysate
Fyn (P06241) = target: T1, Fyn (P06241) (Homo sapiens, UniProt P06241)
T1 construct: purchased PamGene (PamChip PTK array, Upstream Kinase Analysis)
Method in brief: (§1)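 HL60 (AML) cell lysate was spiked with compound at 0.001, 0.01, 0.1, 1, 10 and 50 µM, or 2% v/v DMSO as control, then profiled in technical replicates on a tyrosine kinase peptide array of 196 phosphosites. Kinase activity was inferred from peptide-set changes using an upstream kinase tool.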

TRKB (Q16620) = target: T2, TRKB (Q16620) (Homo sapiens, UniProt Q16620)
T2 construct: purchased PamGene (PamChip PTK array, Upstream Kinase Analysis)
Method in brief: as §1

FAK2 (Q14289) = target: T3, FAK2 (Q14289) (Homo sapiens, UniProt Q14289)
T3 construct: purchased PamGene (PamChip PTK array, Upstream Kinase Analysis)
Method in brief: as §1

HER3 (P21860) = target: T4, HER3 (P21860) (Homo sapiens, UniProt P21860)
T4 construct: purchased PamGene (PamChip PTK array, Upstream Kinase Analysis)
Method in brief: as §1

Src (P12931) = target: T5, Src (P12931) (Homo sapiens, UniProt P12931)
T5 construct: purchased PamGene (PamChip PTK array, Upstream Kinase Analysis)
Method in brief: as §1

EphA5 (P54756) = target: T6, EphA5 (P54756) (Homo sapiens, UniProt P54756)
T6 construct: purchased PamGene (PamChip PTK array, Upstream Kinase Analysis)
Method in brief: as §1

RYK (H0Y8A4) = target: T7, RYK (H0Y8A4) (Homo sapiens, UniProt P34925)
T7 construct: purchased PamGene (PamChip PTK array, Upstream Kinase Analysis)
Method in brief: as §1

Lck (P06239) = target: T8, Lck (P06239) (Homo sapiens, UniProt P06239)
T8 construct: purchased PamGene (PamChip PTK array, Upstream Kinase Analysis)
Method in brief: as §1

EphA4 (P54764) = target: T9, EphA4 (P54764) (Homo sapiens, UniProt P54764)
T9 construct: purchased PamGene (PamChip PTK array, Upstream Kinase Analysis)
Method in brief: as §1

BLK (P51451) = target: T10, BLK (P51451) (Homo sapiens, UniProt P51451)
T10 construct: purchased PamGene (PamChip PTK array, Upstream Kinase Analysis)
Method in brief: as §1

EphA2 (P29317) = target: T11, EphA2 (P29317) (Homo sapiens, UniProt P29317)
T11 construct: purchased PamGene (PamChip PTK array, Upstream Kinase Analysis)
Method in brief: as §1

FLT1 (P17948) = target: T12, FLT1 (P17948) (Homo sapiens, UniProt P17948)
T12 construct: purchased PamGene (PamChip PTK array, Upstream Kinase Analysis)
Method in brief: as §1

SRM (Q9H3Y6) = target: T13, SRM (Q9H3Y6) (Homo sapiens, UniProt Q9H3Y6)
T13 construct: purchased PamGene (PamChip PTK array, Upstream Kinase Analysis)
Method in brief: as §1

T7 sequence (P34925 26-607, one chain of several): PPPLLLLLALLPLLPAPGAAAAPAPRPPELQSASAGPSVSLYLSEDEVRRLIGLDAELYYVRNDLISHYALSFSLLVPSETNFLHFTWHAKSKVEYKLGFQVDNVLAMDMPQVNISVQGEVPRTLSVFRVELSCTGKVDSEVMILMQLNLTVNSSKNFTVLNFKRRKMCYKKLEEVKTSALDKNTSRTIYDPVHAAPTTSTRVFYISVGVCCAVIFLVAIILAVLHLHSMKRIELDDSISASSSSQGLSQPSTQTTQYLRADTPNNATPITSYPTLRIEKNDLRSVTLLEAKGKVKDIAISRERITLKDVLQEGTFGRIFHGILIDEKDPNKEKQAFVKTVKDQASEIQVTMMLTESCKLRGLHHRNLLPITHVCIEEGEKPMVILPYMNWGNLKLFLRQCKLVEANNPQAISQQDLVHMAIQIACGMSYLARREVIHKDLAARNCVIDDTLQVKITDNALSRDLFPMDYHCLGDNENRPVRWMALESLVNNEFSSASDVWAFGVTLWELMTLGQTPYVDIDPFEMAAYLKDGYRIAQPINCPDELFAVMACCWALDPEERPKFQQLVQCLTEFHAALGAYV
T13 sequence (Q9H3Y6 whole entry): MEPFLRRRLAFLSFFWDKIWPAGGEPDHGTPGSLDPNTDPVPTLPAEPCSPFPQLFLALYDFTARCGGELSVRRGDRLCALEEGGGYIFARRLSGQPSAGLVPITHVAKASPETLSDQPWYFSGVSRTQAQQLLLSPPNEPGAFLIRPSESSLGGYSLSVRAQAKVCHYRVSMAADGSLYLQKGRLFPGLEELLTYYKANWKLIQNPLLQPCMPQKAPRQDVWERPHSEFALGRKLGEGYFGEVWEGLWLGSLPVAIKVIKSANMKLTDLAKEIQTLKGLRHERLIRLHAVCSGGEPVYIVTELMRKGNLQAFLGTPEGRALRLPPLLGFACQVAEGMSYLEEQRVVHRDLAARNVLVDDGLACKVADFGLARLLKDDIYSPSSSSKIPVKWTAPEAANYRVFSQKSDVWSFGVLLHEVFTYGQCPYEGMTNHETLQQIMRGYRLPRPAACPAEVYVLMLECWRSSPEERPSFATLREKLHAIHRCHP
T10 sequence (P51451 whole entry): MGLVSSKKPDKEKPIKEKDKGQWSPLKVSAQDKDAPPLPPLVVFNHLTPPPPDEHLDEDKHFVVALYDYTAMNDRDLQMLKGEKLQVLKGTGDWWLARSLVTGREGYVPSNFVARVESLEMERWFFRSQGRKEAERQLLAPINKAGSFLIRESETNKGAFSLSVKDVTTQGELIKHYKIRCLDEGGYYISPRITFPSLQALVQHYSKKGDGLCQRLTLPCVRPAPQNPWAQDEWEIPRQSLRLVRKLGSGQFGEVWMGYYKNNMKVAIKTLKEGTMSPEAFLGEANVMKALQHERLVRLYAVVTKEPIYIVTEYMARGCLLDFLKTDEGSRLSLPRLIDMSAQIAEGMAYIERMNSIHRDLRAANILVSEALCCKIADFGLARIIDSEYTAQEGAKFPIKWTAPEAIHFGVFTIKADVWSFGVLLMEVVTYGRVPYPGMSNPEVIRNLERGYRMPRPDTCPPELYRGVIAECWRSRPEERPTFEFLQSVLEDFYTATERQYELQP
T4 sequence (P21860 20-1342): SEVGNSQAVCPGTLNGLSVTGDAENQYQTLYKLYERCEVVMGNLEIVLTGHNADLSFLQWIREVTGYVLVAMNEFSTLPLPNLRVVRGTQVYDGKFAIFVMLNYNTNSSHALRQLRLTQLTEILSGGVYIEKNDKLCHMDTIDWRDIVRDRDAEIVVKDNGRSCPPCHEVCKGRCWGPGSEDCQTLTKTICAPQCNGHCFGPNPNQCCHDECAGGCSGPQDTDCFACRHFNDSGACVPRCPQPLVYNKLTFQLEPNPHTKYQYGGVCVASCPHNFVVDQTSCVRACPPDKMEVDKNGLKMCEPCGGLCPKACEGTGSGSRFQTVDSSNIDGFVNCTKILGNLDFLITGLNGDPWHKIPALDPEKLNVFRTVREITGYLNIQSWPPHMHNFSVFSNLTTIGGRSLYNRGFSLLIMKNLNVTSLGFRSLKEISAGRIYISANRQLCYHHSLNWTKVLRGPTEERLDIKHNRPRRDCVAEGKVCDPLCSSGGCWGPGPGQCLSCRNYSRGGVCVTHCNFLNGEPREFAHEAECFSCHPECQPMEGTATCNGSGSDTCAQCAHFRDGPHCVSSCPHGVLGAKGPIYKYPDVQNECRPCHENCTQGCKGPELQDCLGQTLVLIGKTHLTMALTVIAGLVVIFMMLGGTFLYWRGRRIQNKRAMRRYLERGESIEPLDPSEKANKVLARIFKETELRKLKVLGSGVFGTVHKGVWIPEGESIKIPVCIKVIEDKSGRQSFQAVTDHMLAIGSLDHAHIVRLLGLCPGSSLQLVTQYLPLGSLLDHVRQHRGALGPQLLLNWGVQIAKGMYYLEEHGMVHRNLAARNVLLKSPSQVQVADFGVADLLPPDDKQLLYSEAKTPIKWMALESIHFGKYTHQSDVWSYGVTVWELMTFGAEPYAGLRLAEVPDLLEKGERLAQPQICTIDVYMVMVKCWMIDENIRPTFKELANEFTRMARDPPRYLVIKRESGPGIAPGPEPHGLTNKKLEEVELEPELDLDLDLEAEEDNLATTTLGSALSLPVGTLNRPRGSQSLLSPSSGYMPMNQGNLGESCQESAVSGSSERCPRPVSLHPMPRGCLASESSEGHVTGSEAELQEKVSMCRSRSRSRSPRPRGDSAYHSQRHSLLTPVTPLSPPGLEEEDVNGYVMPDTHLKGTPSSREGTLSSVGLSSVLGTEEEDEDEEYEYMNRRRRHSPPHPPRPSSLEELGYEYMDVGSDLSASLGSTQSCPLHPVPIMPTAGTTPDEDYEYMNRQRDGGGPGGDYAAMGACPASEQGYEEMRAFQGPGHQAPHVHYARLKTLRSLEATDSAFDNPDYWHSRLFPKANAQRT
T2 sequence (Q16620 32-822): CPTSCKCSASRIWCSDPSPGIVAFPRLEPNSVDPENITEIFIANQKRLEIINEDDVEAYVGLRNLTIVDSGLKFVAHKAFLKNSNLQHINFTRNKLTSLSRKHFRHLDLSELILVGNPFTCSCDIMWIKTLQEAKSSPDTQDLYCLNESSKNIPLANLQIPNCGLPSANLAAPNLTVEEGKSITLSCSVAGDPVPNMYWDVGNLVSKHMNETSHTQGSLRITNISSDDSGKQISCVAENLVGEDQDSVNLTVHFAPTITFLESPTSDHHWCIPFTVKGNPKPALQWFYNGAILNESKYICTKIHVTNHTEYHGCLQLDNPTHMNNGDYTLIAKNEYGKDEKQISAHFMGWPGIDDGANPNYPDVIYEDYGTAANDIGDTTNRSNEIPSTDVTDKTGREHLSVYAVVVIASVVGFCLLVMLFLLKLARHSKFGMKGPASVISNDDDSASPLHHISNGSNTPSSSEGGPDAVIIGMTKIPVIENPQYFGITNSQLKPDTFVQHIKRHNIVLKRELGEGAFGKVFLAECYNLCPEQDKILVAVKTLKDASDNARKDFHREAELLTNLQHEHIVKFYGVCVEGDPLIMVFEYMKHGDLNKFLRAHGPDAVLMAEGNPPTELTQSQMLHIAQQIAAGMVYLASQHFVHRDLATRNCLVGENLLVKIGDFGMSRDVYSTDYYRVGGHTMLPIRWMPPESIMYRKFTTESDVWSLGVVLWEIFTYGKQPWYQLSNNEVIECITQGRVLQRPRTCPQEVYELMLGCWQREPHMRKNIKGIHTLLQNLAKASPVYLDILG
T12 sequence (P17948 27-1338): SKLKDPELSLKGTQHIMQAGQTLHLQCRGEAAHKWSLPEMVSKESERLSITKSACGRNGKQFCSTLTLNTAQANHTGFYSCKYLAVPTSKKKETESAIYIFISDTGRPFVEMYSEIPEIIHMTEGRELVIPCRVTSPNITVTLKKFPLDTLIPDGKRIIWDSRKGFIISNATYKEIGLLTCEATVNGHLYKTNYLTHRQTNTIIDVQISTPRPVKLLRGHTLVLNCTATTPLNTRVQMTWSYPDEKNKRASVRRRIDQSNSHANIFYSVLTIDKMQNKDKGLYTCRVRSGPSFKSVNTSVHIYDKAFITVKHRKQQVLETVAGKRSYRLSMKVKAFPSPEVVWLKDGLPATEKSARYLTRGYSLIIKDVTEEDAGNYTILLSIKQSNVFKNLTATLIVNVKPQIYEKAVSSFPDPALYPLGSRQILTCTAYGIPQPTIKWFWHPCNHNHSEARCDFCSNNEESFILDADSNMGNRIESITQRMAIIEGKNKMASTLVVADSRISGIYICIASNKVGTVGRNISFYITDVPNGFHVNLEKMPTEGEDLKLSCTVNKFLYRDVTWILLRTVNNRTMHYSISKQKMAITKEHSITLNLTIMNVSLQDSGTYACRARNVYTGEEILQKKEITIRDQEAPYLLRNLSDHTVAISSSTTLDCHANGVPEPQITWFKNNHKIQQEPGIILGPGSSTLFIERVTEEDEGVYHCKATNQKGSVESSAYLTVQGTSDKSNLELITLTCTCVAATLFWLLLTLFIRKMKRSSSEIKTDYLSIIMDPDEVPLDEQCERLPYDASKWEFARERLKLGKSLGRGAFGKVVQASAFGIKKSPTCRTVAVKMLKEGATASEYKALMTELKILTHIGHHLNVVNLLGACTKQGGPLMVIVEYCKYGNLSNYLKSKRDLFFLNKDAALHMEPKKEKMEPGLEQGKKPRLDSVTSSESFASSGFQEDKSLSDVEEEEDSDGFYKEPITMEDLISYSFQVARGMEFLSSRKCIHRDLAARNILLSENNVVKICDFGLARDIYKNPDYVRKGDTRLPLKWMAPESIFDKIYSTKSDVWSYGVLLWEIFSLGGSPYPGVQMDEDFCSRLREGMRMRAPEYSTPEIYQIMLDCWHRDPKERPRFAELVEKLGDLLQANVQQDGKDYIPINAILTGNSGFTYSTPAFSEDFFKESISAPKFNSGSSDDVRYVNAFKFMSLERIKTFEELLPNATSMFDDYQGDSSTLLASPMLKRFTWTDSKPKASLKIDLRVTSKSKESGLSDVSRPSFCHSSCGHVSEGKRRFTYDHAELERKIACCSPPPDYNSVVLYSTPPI

SMILES: COc1ccc(/C=C2\N=C(C)N(c3ccc(CC(=O)NCc4ccccc4)cc3)C2=O)cc1 [Compound 4c, (Z)-N-Benzyl-2-(4-(4-(4-methoxybenzylidene)-2-methyl-5-oxo-4,5-dihydro-1H-imidazol-1-yl)phenyl)acetamide]
- Mean Final score (Kinase score) (Fyn (P06241)): 2.45
- Mean Kinase Statistic (Fyn (P06241)): -1.236
- Mean Significance Score (Fyn (P06241)): 2.048
- Mean Specificity Score (Fyn (P06241)): 0.4193
- Mean Final score (Kinase score) (TRKB (Q16620)): 2.487
- Mean Kinase Statistic (TRKB (Q16620)): -1.25
- Mean Significance Score (TRKB (Q16620)): 2.048
- Mean Specificity Score (TRKB (Q16620)): 0.5169
- Mean Final score (Kinase score) (FAK2 (Q14289)): 2.241
- Mean Kinase Statistic (FAK2 (Q14289)): -1.142
- Mean Significance Score (FAK2 (Q14289)): 2.048
- Mean Specificity Score (FAK2 (Q14289)): 0.216
- Mean Final score (Kinase score) (HER3 (P21860)): 2.412
- Mean Kinase Statistic (HER3 (P21860)): -1.214
- Mean Significance Score (HER3 (P21860)): 2.014
- Mean Specificity Score (HER3 (P21860)): 0.4279
- Mean Significance Score (Src (P12931)): 2.048
- Mean Specificity Score (Src (P12931)): 0.05941
- Mean Final score (Kinase score) (Src (P12931); listed as KIM-161): 2.16 and 2.164
- Mean Final score (Kinase score) (EphA5 (P54756)): 2.0125
- Mean Kinase Statistic (EphA5 (P54756)): -1.181
- Mean Significance Score (EphA5 (P54756)): 1.675
- Mean Specificity Score (EphA5 (P54756)): 0.3238
- Mean Final score (Kinase score) (RYK (H0Y8A4)): 2.574
- Mean Kinase Statistic (RYK (H0Y8A4)): -1.293
- Mean Significance Score (RYK (H0Y8A4)): 2.048
- Mean Specificity Score (RYK (H0Y8A4)): 0.5126
- Mean Significance Score (Lck (P06239)): 2.048
- Mean Specificity Score (Lck (P06239)): 0.6669
- Mean Final score (Kinase score) (Lck (P06239); listed as KIM-161): 2.76 and 2.758
- Mean Final score (Kinase score) (EphA4 (P54764)): 1.356
- Mean Kinase Statistic (EphA4 (P54764)): -0.7819
- Mean Significance Score (EphA4 (P54764)): 1.252
- Mean Specificity Score (EphA4 (P54764)): 0.07789
- Mean Final score (Kinase score) (BLK (P51451)): 1.48
- Mean Kinase Statistic (BLK (P51451)): -1.015
- Mean Significance Score (BLK (P51451)): 1.433
- Mean Specificity Score (BLK (P51451)): 0.07394
- Mean Significance Score (EphA2 (P29317)): 1.975
- Mean Specificity Score (EphA2 (P29317)): 0.9606
- Mean Final score (Kinase score) (EphA2 (P29317); listed as KIM-161): 3.09 and 3.095
- Mean Significance Score (FLT1 (P17948)): 2.048
- Mean Specificity Score (FLT1 (P17948)): 1.113
- Mean Final score (Kinase score) (FLT1 (P17948); listed as KIM-161): 3.23 and 3.228
- Mean Significance Score (SRM (Q9H3Y6)): 2.048
- Mean Specificity Score (SRM (Q9H3Y6)): 1.961
- Mean Final score (Kinase score) (SRM (Q9H3Y6); listed as KIM-161): 4.1 and 4.097
